From ChEMBL document CHEMBL1149743, “Linear diterpenes from the Caribbean sponge Myrmekioderma styx” (J Nat Prod, 1992)
≈ marks a conversion by molar mass, not a printed value.

Assays:
[1] = (§1) Toxicity against Artemia salina after 24 hrs; assay type: organism-based; conditions: in vivo
Artemia salina = assay: as §1; assay type: organism-based; conditions: in vivo, 24 h

C=CC(C)(O)/C=C/C=C(\C)CC/C=C(\C)CC(=O)CC(C)C (centres undefined) gave an LC50 at 24 h [1] of 3 µg/mL (≈ 9.85 µM).
In the case of C=CC(C)(O)/C=C/C=C(\C)CC/C=C(\C)CCC=C(C)C (centres undefined), the Activity (Artemia salina) is reported as “Toxic”.
Molecule C=CC(C)(O)/C=C/C=C(\C)CCC/C(C)=C\C(=O)C=C(C)C (centres undefined) has an LC50 at 24 h [1] of 163 µg/mL (≈ 539 µM).
In the case of C=CC(C)(O)/C=C/C=C(\C)CC/C=C(\C)CC(=O)C=C(C)C (centres undefined) [STYXENOL A], the LC50 at 24 h [1] is reported as 154 µg/mL (≈ 509 µM).
